Data: patent US10149840B2, “OCT3 activity inhibitor containing imidazopyridine derivative as active component, and OCT3 detection agent” (SHIN NIPPON BIOMEDICAL LABORATORIES, LTD., priority 2012, dated 2018)

Tests used:
[1] = molecular target: OCT3 (Homo sapiens (Human), UniProt O75751); settings: Non Patent Literature 1; read-out: IC50 (reported); cited from earlier work
[2] = measured Brain/Blood verification experiment in BALB/c mice; assay type: in vivo; settings: mouse, 5 mg/kg, five minutes after administration, brain homogenate vs plasma
Description: The Brain/Blood value predicted with the above method was verified with an experiment using BALB/c mice. As test substances in the verification experiment, two compounds of SR-4277 and Famotidine were used. […] The test substance was administered in 5 mg/kg to the mice. The mice were anesthetized in advance with isoflurane, and exsanguination was performed from the vena cava of the mice five minutes after the administration. Brains were removed, and weights thereof were measured. After that, a brain homogenate was prepared. The collected blood was subjected to centrifugation, and plasma was thereby prepared. Concentrations of the test substance in plasma and the brain homogenate were measured with HPLC and MS.

[3] = system: ddY male mice; experiment: forced swimming test; assay type: in vivo; settings: low dose administered alone (imipramine 4 mg/kg or OCT3 inhibitor 0.25 μl/hr)
Description: In this forced swimming test, mice or rats as test animals are forced to swim in water tanks from which the mice or rats cannot escape. Then, an immobility behavior of the test animals after an escape behavior thereof (a state in which only the head is above the water surface and the test animals are floating without moving the hands or feet) is observed. When the test animals are put into the water tanks again 24 hours or more later, the immobility behavior is expressed earlier than in the first experiment. Duration of this immobility behavior for a certain time (usually about 5 minutes) is relatively accurately reproduced.
Specifically, a test is performed as follows.
In an experiment, ddY male mice each weighing 28 to 33 g (Japan SLC, Inc.) are used. […] After being acquired, these mice are bred in a room in which temperature (22 to 24° C.), humidity (50 to 60%), and lighting (lighting 8:00 to 20:00) are controlled for three or more days. In the first forced swimming test, all the experimental mice are forced to swim in glass cylinders (diameter 15.5 cm, depth 17 cm, water depth 12 cm, water temperature 25° C.) for 300 seconds to measure immobility time. The mice are distributed into experimental groups (an OCT3 inhibitor-administrated group, a positive control group, and a negative control group) such that an average value of the immobility time is almost the same. […]

OCT3, sequence (O75751 whole entry): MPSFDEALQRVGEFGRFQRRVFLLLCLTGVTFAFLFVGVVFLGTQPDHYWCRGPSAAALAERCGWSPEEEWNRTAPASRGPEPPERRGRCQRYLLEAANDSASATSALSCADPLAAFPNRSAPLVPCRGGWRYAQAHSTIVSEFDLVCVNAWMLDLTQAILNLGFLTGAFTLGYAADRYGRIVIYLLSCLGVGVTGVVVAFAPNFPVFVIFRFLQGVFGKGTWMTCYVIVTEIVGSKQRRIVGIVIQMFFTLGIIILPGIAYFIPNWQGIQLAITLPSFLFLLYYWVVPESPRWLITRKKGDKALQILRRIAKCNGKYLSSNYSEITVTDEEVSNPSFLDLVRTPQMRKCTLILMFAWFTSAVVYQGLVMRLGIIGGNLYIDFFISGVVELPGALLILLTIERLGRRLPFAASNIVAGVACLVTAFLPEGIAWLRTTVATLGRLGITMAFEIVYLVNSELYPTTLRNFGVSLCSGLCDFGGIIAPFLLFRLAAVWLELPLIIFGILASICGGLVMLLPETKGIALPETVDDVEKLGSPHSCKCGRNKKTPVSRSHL

Kp at 5 min [2]	SMILES	IC50 [1]	average value of the immobility time [3]
–	CN1C2CCCC1CC(NC(=O)c1nn(C)c3ccccc13)C2 (stereo not drawn) [granisetron]	≤ 100 µM	–
0.1	NC(N)=Nc1nc(CSCCC(N)=NS(N)(=O)=O)cs1 [Famotidine]	20 µM	–
–	Cn1cc(C(=O)[C@@H]2CCc3nc[nH]c3C2)c2ccccc21 [ramosetron]	≤ 100 µM	–
–	CN(C)CCCN1c2ccccc2CCc2ccccc21 [imipramine]	–	about 200 seconds
–	CN/C(=N/CCSCc1nc[nH]c1C)NC#N [cimetidine]	240 µM	–
